Test results reported in PubChem BioAssay (NCI).
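96-well plates; 48 h exposure; 5 concentrations. Endpoints by linear interpolation between flanking doses. Not reached: highest tested concentration assigned. TGI denotes the concentration required for complete inhibition of growth.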

Key:
Test in all cases: NCI-60 cell line screen, 48 h
[1] = test system: IGROV1 ovarian
[2] = test system: SK-MEL-5 melanoma
[3] = test system: SK-MEL-28 melanoma
[4] = test system: COLO 205 colon
[5] = test system: DLD-1 colon
[6] = test system: A549 NSCLC
[7] = test system: DMS 114 small cell lung
[8] = test system: UACC-257 melanoma
[9] = test system: M19-MEL melanoma
[10] = test system: KM12 colon
[11] = test system: SNB-78 CNS
[12] = test system: MDA-N

| SMILES | TGI [1] | TGI [2] | TGI [3] | TGI [4] | TGI [5] | TGI [6] | TGI [7] | TGI [8] | TGI [9] | TGI [10] | TGI [11] | TGI [12] |
| --- | --- | --- | --- | --- | --- | --- | --- | --- | --- | --- | --- | --- |
| O=C(c1ccccc1)c1c(CNCc2ccccc2)n(C(=O)c2ccccc2)c2ccccc12 | > 100 µM | > 100 µM | > 100 µM | > 100 µM | > 100 µM | > 100 µM | > 100 µM | > 100 µM | > 100 µM | 87.8 µM | – | – |
| O=c1[nH]c(=O)n(C2CC(O)C(CO)O2)cc1C#Cc1cc(F)cc(F)c1 (configuration not stated) | > 100 µM | > 100 µM | > 100 µM | > 100 µM | > 100 µM | > 100 µM | > 100 µM | > 100 µM | > 100 µM | > 100 µM | > 100 µM | – |
| COc1cc(C=O)c(-c2cc3c(cc2C=O)OCO3)c(OC)c1OC | > 290 µM | > 290 µM | > 290 µM | > 290 µM | > 290 µM | > 290 µM | > 290 µM | > 290 µM | > 290 µM | 159 µM | – | – |
| CC1CCC23COC(=O)C2C(O)CCC3C1(C)CC(O)c1ccoc1 (configuration not stated) | > 100 µM | > 100 µM | > 100 µM | > 100 µM | > 100 µM | > 100 µM | > 100 µM | > 100 µM | > 100 µM | > 100 µM | > 100 µM | – |
| CCSc1nc2n(c(=S)n1)CCN2C | 45.9 µM | 30 µM | 41.3 µM | – | – | 61.3 µM | 39.4 µM | 25.5 µM | 29.4 µM | 52.3 µM | – | – |
| CC(=O)NC(CCCCNC(=O)N(C)N=O)C(=O)NCc1ccccc1 (configuration not stated) | > 100 µM | > 100 µM | > 100 µM | > 100 µM | > 100 µM | > 100 µM | > 100 µM | > 100 µM | > 100 µM | > 100 µM | > 100 µM | – |
| O=C(Nc1c(Cl)cc([N+](=O)[O-])cc1Cl)/C(=N\Nc1cccc(Cl)c1)c1c(O)c2ccccc2oc1=O | > 100 µM | > 100 µM | > 100 µM | > 100 µM | > 100 µM | > 100 µM | > 100 µM | > 100 µM | > 100 µM | > 100 µM | – | – |
| CCN(CC)CCOc1ccc(C(=C2CCCCC2)c2ccc(OCCN(CC)CC)cc2)cc1 | 3.58 µM | 2.95 µM | 2.64 µM | 2.7 µM | 4.52 µM | 3.16 µM | – | 3.32 µM | 3.08 µM | 2.57 µM | – | – |
| C/C(=N/N)c1ccc2[nH]c3c(C)cc([N+](=O)[O-])c(C)c3c2c1 | – | 18.1 µM | 24.5 µM | 25.5 µM | – | 40.6 µM | 25.8 µM | 48.6 µM | 27.1 µM | – | – | – |
| S=C(Nc1ccccc1)N1N=C2c3ccccc3CC[C@H]2[C@@H]1c1ccccc1 | > 100 µM | – | > 100 µM | – | > 100 µM | > 100 µM | > 100 µM | > 100 µM | > 100 µM | > 100 µM | > 100 µM | – |
| CSc1ccc2c(cc1=O)[C@@H](NC(=O)c1ccc(F)cc1)CCc1cc(O)c(O)c(O)c1-2 | > 100 µM | > 100 µM | > 100 µM | > 100 µM | > 100 µM | > 100 µM | > 100 µM | > 100 µM | > 100 µM | > 100 µM | > 100 µM | – |
| CC1=NN(C(=O)Cc2ccccc2)C(=O)/C1=C\c1ccco1 | – | > 100 µM | > 100 µM | > 100 µM | > 100 µM | > 100 µM | > 100 µM | > 100 µM | > 100 µM | > 100 µM | > 100 µM | – |
| COc1ccc(C#CCC(OC2OC(CO)C(O)C(O)C2O)C(O)c2ccc(OC)c(OC)c2)cc1OC (configuration not stated) | > 100 µM | > 100 µM | > 100 µM | > 100 µM | > 100 µM | > 100 µM | – | > 100 µM | – | > 100 µM | > 100 µM | – |
| Cc1ccc(C2=C(c3ccccc3)C(O)(c3ccc(C)cc3)C(c3ccccc3)=C2c2ccc(C)cc2)cc1 | > 100 µM | > 100 µM | > 100 µM | > 100 µM | > 100 µM | > 100 µM | > 100 µM | > 100 µM | > 100 µM | > 100 µM | > 100 µM | – |
| O=C1NN(c2ccccc2)C(=O)C2C3c4ccccc4C(c4ccccc43)C12 (configuration not stated) | > 100 µM | > 100 µM | > 100 µM | > 100 µM | – | > 100 µM | – | > 100 µM | – | > 100 µM | – | > 100 µM |
| CN(C)CCC1(C2=CCCC2)CC/C(=C\c2ccccc2)C1=O (configuration not stated) | 29.8 µM | 27.8 µM | 38 µM | 28.3 µM | 37.5 µM | 41.9 µM | 33.2 µM | 28.5 µM | 28.5 µM | 28.8 µM | 46.2 µM | – |
| COC(=O)C(Cc1nc2ccccc2[nH]c1=O)C(=O)C(=O)Nc1ccc(OC)cc1[N+](=O)[O-] (configuration not stated) | > 100 µM | > 100 µM | > 100 µM | > 100 µM | – | > 100 µM | – | > 100 µM | > 100 µM | > 100 µM | > 100 µM | – |
| COc1cc(OC)nc(Nc2c(C#N)c3nc4ccccc4n3c3ccccc23)n1 | > 100 µM | > 100 µM | > 100 µM | > 100 µM | – | > 100 µM | – | > 100 µM | – | > 100 µM | – | > 100 µM |
| CC(=O)Nc1ccc(-c2nc3ccccc3s2)cc1O | 57.7 µM | 62.8 µM | > 100 µM | > 100 µM | – | > 100 µM | – | > 100 µM | – | 73 µM | – | > 100 µM |
| O=C(/C(=C/c1cccs1)c1ccccc1)c1ccccc1 | > 100 µM | > 100 µM | > 100 µM | > 100 µM | – | > 100 µM | – | > 100 µM | – | > 100 µM | – | > 100 µM |
| CCCCOC(=O)C1CN2C(=NC1(C(F)(F)F)C(F)(F)F)Sc1ccccc12 (configuration not stated) | > 100 µM | 54.2 µM | > 100 µM | > 100 µM | – | > 100 µM | – | > 100 µM | – | > 100 µM | – | > 100 µM |
